From ChEMBL document CHEMBL4219265, “Piperlongumine derivative, CG-06, inhibits STAT3 activity by direct binding to STAT3 and regulating the reactive oxygen species in DU145 prostate carcinoma cells” (Bioorg Med Chem Lett, 2018)

Tests used:
[1] = target: T1, Signal transducer and activator of transcription 3 (Homo sapiens, UniProt P40763); test: Inhibition of STAT3 (unknown origin) expressed in human HCT116 cells after 24 hrs by dual-luciferase reporter gene assay; type: cell-based
[2] = target: T1, Signal transducer and activator of transcription 3; test: Inhibition of STAT3 phosphorylation at Tyr705 residues in human DU145 cells at 5 uM after 24 hrs by Western blot analysis; type: cell-based
[3] = target: T1, Signal transducer and activator of transcription 3; test: Inhibition of STAT3 phosphorylation at Tyr705 residues in human DU145 cells assessed as ratio of phosphorylated STAT3 protein level to GAPDH protein level at 1 uM after 24 hrs by Western blot analysis (reference value: 1); type: cell-based
DU-145 [4] = test: Effect on total STAT3 protein level in human DU145 cells assessed as ratio of STAT3 protein level to GAPDH protein level at 1 uM after 24 hrs by Western blot analysis (reference value: 1); type: ADME, cell-based; details: du-145, 24 h
[5] = target: T1, Signal transducer and activator of transcription 3; test: Inhibition of STAT3 phosphorylation at Tyr705 residues in human DU145 cells assessed as ratio of phosphorylated STAT3 protein level to GAPDH protein level at 5 uM after 1 hr by Western blot analysis (reference value: 1); type: cell-based
DU-145 [6] = test: Effect on total STAT3 protein level in human DU145 cells assessed as ratio of STAT3 protein level to GAPDH protein level at 5 uM after 12 hrs by Western blot analysis (reference value: 1); type: ADME, cell-based; details: du-145, 12 h
[7] = target: T1, Signal transducer and activator of transcription 3; test: Inhibition of STAT3 in human DU145 cells assessed as ratio of cyclin A protein level to tubulin protein level at 5 uM after 48 hrs by Western blot analysis (reference value: 1); type: cell-based
[8] = target: T1, Signal transducer and activator of transcription 3; test: Inhibition of STAT3 in human DU145 cells assessed as ratio of Bcl-2 protein level to tubulin protein level at 5 uM after 48 hrs by Western blot analysis (reference value: 1); type: cell-based
[9] = target: T1, Signal transducer and activator of transcription 3; test: Inhibition of STAT3 phosphorylation in human LNCAP cells assessed as ratio of phosphorylated STAT3 protein level to GAPDH protein level at 5 uM after 12 hrs by Western blot analysis (reference value: 1); type: cell-based
LNCaP = test: Effect on total STAT3 protein level in human LNCAP cells assessed as ratio of STAT3 protein level to GAPDH protein level at 5 uM after 12 hrs by Western blot analysis (reference value: 1); type: ADME, cell-based
DU-145 [10] = test: Cell cycle arrest in human DU145 cells assessed as accumulation at G2/M phase at 5 uM after 12 hrs by flow cytometry (reference value: 18.12%); type: functional
DU-145 [11] = test: Cell cycle arrest in human DU145 cells assessed as accumulation at G0/G1 phase at 5 uM after 48 hrs by flow cytometry (reference value: 24.07%); type: functional
[12] = target: T1, Signal transducer and activator of transcription 3; test: Binding affinity to STAT3 in human DU145 cell lysates assessed as reduction in pronase-induced STAT3 digestion by measuring ratio of STAT3 protein level to GAPDH protein level at 50 uM incubated for 1 hr followed by 0.1% pronase addition for 10 mins by Western blot analysis (reference value: 0.2)
[13] = target: T1, Signal transducer and activator of transcription 3; test: Binding affinity to STAT3 in human DU145 cell lysates assessed as reduction in pronase-induced STAT3 digestion by measuring ratio of STAT3 protein level to GAPDH protein level at 1 uM incubated for 1 hr followed by 0.05% pronase addition for 10 mins by Western blot analysis (reference value: 1)
[14] = target: T1, Signal transducer and activator of transcription 3; test: Binding affinity to STAT3 in human DU145 cell lysates assessed as reduction in pronase-induced STAT3 digestion by measuring ratio of STAT3 protein level to GAPDH protein level incubated for 1 hr followed by 0.05% pronase addition for 10 mins by Western blot analysis
[15] = target: T1, Signal transducer and activator of transcription 3; test: Inhibition of STAT3-induced ERK1/2 phosphorylation in human DU145 cells assessed as ratio of phosphorylated ERK1/2 protein level to GAPDH protein level at 5 uM after 12 hrs by Western blot analysis (reference value: 1); type: cell-based
DU-145 [16] = test: Effect on total ERK1/2 protein level in human DU145 cells assessed as ratio of ERK1/2 protein level to GAPDH protein level at 5 uM after 1 hr by Western blot analysis (reference value: 1); type: ADME, cell-based; details: du-145, 1 h
[17] = target: T1, Signal transducer and activator of transcription 3; test: Inhibition of STAT3 in human DU145 cells assessed as increase in ERK1/2 phosphorylation at 5 uM by Western blot analysis; type: cell-based; details: TDE = time-dependent effect

T1 sequence (P40763 whole entry): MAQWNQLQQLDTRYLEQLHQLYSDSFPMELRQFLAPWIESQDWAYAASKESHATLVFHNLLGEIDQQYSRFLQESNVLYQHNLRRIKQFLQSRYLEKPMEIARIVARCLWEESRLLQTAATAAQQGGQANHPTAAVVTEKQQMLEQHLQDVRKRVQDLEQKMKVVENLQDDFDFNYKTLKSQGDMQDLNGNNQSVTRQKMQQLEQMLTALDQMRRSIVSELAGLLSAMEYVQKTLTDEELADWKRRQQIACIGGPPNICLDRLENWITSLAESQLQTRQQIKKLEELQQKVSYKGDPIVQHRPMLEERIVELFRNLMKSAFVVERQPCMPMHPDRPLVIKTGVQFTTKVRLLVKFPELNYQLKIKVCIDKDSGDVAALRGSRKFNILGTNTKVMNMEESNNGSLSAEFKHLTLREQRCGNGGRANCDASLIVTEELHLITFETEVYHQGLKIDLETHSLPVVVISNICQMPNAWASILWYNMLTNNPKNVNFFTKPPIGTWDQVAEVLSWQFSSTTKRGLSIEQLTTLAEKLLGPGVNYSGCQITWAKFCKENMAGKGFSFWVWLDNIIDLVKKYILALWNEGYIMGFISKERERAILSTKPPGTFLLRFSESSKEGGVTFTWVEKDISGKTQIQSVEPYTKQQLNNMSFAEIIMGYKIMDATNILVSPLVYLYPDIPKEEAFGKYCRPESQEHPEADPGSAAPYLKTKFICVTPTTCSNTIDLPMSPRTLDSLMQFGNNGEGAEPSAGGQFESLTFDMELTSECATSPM

IC50 [1]: 10 µM
inhibition [1]: Dose-dependent effect
inhibition [2]: > 70%
Ratio [3]: 0.6
Ratio (DU-145 [4]): 1.1
Ratio [5]: 0.3
Ratio (DU-145 [6]): 0.9
Ratio [7]: 0.6
Ratio [8]: 0.7
Ratio [9]: 1
Ratio (LNCaP): 1.2
Ratio [12]: 0.3
Ratio [13]: 1.1
Activity [14]: Dose-dependent effect
Ratio [15]: 2.3
Ratio (DU-145 [16]): 1.1
inhibition [17]: Tde
SMILES: C=C(C)C(=O)N(Cc1ccc(Br)cc1)C(=O)/C=C/c1cc(OC)c(OC)c(OC)c1
Activity (DU-145 [10]): 21.05%
Activity (DU-145 [11]): 26.59%
